Measurements reported in article PMC11557314 (Frontiers in Pharmacology, 2024).
Where no end group is shown, it is not given here.

Assays:
hKOPr [1] = biological target: T1, hKOPr (Homo sapiens, UniProt P41145); assay: cell-based; type: cell-based; settings: for Emax: HEK293, read-out: β-Arrestin recruitment, efficacy at hKOPr Emax; for EC50: read-out: β-Arrestin recruitment, potency at hKOPr EC50
hMOPr [2] = biological target: T2, hMOPr (Homo sapiens, UniProt P35372); type: biochemical; settings: for EC50: read-out: hMOPr EC50, stimulation of [35S]GTPγS binding
hKOPr [3] = assay: Biased factor calculation from GTPγS and PRESTO-Tango data; set-up: species or system human; settings: G-protein vs β-arrestin, DynA as reference; below 1 = β-arrestin bias
Description: To perform biased factor analyses, we followed the step-by-step protocol described by [Nagi and Pineyro (2016)]. In short, curve fitting was used to calculate τ and Ka values for G-protein and β-arrestin pathway activation. Log(τ/Ka) ratios were subtracted by log(τ/Ka) of DynA as the reference to yield ΔLog(τ/Ka) values for each peptide. In a final step for each peptide, ΔLog (τ/Ka) values for G-protein pathway activation were subtracted from ΔLog(τ/Ka) values for β-arrestin pathway activation and vice versa to calculate ΔΔLog(τ/Ka). The biased factor is yielded by delogging ΔΔLog (τ/Ka).
To confidently identify a G-protein-biased peptide of interest, it is essential to keep in mind that the responses we collected through GTPγS and PRESTO-Tango assay are not solely determined by drug signaling properties but also by the way the cell and different assays “perceive” the generation of this response. These different “perceptions” of the pharmacological stimulus may themselves be responsible for an imbalance among signals from different pathways. To avoid this, and to be able to correctly estimate whether a peptide is indeed biased, we applied the method proposed by [Kenakin et al. (2012)], that is based on the operational method proposed by [Black and Leff (1983)]. This method takes into consideration receptor occupation by the agonist, communication of the pharmacological stimulus to the system, and the processing of the stimulus by the system that produces the response.

hKOPr [4] = biological target: T1, hKOPr; type: binding; settings: for Ki: read-out: Ki hKOPr
hDOPr [5] = biological target: T3, hDOPr (Homo sapiens, UniProt P41143); assay: [35S]GTPγS functional assay on hDOPr-CHO cell membranes; type: biochemical; settings: Table 3, mean ± SEM; for hDOPr % stim, stimulation of [35S]GTPγS binding: normalized to DynA; for EC50: read-out: hDOPr EC50, stimulation of [35S]GTPγS binding
Protocol: CHO cells stably transfected with human KOPr, MOPr, and DOPr (hKOPr-CHO, hMOPr-CHO, and hDOPr-CHO, respectively) were provided by Prof. Liu-Chen (Temple University, Philadelphia, United States). The cells were grown in Gibco™ Dulbecco’s minimal essential medium (DMEM) for hKOPr-CHO or Gibco™ DMEM/F-12 for hMOPr and hDOPr. Both media were supplemented with 10% FBS (Gibco™), GlutaMAX (100 μg/mL; Gibco™), penicillin/streptomycin (100 μg/mL; Gibco™), and geneticin (G418, 400 μg/mL; Gibco™). HEK 293 cells were grown in high-glucose DMEM supplemented with 10% FBS (Gibco™), GlutaMAX (100 μg/mL; Gibco™), and penicillin/streptomycin (100 μg/mL; Gibco™). Cell cultures were maintained in a Heracell™ 150i CO2 incubator at 37°C and 5.0% CO2.
Functional assays were conducted on hKOPr-CHO, hMOPr-CHO, and hDOPr-CHO cell membranes (see above). The membranes were prepared in a buffer containing 20 mM HEPES, 10 μM GDP, cell membrane (10–30 μg), and 0.05 nM [^35S]GTPγS. The buffer containing the cell membranes was incubated with an increasing concentration of the test peptide diluted in 1 × HEPES, pH 7.4, in a total volume of 1 mL, for 60 min at 25°C. The peptide solutions were replaced by diluents for untreated controls. Non-specific binding was determined using unlabeled 10 μM GTPγS. Samples were rapidly washed three times with Tris-HCl and filtered through glass fiber filters (GF/B Whatman). The bound radioactivity was measured by liquid scintillation (Carl Roth GmbH, Karlsruhe, Germany) counting on a Packard 1600 TR Tri-Carb Beta counter (Canberra, Belgium).

hKOPr [6] = biological target: T1, hKOPr; assay: biochemical; settings: for Emax: read-out: Efficacy at hKOPr Emax
hDOPr [7] = biological target: T3, hDOPr; assay: Competitive radio binding assay with [3H]-diprenorphine on hDOPr-CHO cell membranes; settings: read-out: Ki hDOPr; [3H]-diprenorphine 1 nM, 60 min 25°C; mean ± SEM
hMOPr [8] = biological target: T2, hMOPr; assay: Competitive radio binding assay with [3H]-DAMGO on hMOPr-CHO cell membranes; settings: read-out: Ki hMOPr; [3H]-DAMGO 1 nM, 60 min 25°C; mean ± SEM
[9] = read-out: Potency at hKOPr EC50
[10] = read-out: hKOPr EC50, stimulation of [35S]GTPγS binding

T2 sequence (P35372 whole entry): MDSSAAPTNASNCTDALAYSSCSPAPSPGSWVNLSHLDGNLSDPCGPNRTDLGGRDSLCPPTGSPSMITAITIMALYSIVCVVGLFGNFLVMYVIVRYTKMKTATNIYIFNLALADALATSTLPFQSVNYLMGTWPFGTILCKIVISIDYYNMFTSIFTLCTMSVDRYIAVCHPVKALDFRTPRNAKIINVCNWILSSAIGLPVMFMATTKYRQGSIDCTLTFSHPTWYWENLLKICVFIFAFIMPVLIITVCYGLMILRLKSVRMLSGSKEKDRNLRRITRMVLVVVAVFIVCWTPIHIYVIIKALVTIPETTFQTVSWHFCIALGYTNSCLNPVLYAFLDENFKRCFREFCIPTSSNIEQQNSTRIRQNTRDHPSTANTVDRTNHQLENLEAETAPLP
T3 sequence (P41143 whole entry): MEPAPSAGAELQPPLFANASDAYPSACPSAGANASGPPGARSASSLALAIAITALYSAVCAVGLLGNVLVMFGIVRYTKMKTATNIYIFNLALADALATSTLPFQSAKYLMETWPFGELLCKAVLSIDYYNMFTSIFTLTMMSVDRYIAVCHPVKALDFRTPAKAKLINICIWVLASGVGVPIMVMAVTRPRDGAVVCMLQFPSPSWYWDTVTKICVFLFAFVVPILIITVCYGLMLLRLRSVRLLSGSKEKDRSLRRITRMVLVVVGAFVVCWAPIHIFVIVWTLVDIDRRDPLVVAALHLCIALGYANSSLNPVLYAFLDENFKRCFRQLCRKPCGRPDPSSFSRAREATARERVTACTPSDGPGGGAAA
T1 sequence (P41145 whole entry): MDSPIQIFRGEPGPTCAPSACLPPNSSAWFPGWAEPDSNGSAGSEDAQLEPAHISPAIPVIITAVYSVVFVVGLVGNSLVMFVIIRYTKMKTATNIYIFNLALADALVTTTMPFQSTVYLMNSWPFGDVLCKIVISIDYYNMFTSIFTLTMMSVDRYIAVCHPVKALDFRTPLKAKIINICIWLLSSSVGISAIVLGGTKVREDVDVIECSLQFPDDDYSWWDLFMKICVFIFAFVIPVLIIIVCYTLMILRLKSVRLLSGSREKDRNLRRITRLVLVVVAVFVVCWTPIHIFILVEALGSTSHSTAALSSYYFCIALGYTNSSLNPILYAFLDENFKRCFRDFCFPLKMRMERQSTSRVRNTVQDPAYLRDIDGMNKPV

| Sequence | Emax (hKOPr [1]) | EC50 (hKOPr [1]) | hMOPr % stim, stimulation of [35S]GTPγS binding (hMOPr [2]) | EC50 (hMOPr [2]) | biased factor at hKOPr (hKOPr [3]) | Selectivity DOPr/KOPr (hKOPr [4]) | Selectivity MOPr/KOPr (hKOPr [4]) | Ki (hKOPr [4]) | hDOPr % stim, stimulation of [35S]GTPγS binding (hDOPr [5]) | EC50 (hDOPr [5]) | Selectivity DOPr/KOPr (GTPγS) (hKOPr [6]) | Selectivity MOPr/KOPr (GTPγS) (hKOPr [6]) | hKOPr % stim, stimulation of [35S]GTPγS binding (hKOPr [6]) | preference for hKOPr over hDOPr (GTPγS) (hKOPr [6]) | Emax (hKOPr [6]) | EC50 (hKOPr [6]; [9]) | EC50 (hKOPr [6]; [10]) | Ki (hDOPr [7]) | Ki (hMOPr [8]) | other results |
| --- | --- | --- | --- | --- | --- | --- | --- | --- | --- | --- | --- | --- | --- | --- | --- | --- | --- | --- | --- | --- |
| YGGFSRRQFKVVT [DynB_L5S] | 95.1 ± 7.7% | 0.146 ± 0.0265 µM | 93.4 ± 5.6% | 0.107 ± 0.0086 µM | 0.7 ± 0.2 | 4,153 | 135 | 0.00014 µM | 86.7 ± 9.2% | 0.31 ± 0.0504 µM | 17 | 6 | 99.1 ± 2.1% | 17 fold | 99.1 ± 2.1% | 0.0177 ± 0.00284 µM | 0.0177 ± 0.0028 µM | 0.573 ± 0.0226 µM | 0.0186 ± 0.0013 µM | potency for β-arrestin recruitment compared to DynB_WT (hKOPr [1]): significantly lower potency |
| YGAFLRRAFKVVT [DynB_G3A/Q8A] | 88.7 ± 2.6% | 0.0661 ± 0.0016 µM | 111 ± 7.7% | 0.297 ± 0.0466 µM | 0.6 ± 0.2 | 778 | 161 | 0.00054 µM | 86.4 ± 10.3% | 1.23 µM | 84 | 20 | 88.6 ± 3.1% | 84 fold | 88.6 ± 3.1% | 0.0146 ± 0.00157 µM | 0.0146 ± 0.0016 µM | 0.417 ± 0.052 µM | 0.0861 ± 0.007 µM | stimulation of the receptor (β-arrestin recruitment) in comparison to DynB_WT (hKOPr [1]): lower stimulation; potency for hKOPr as compared to DynB (GTPγS) (hKOPr [6]): minor reduction in the potency; preference for hKOPr over hMOPr (GTPγS) (hKOPr [6]): 20 fold |
